Experimental data published in patent publication US10463651B2, “3-(1H-pyrrolo[3,2-C]pyridin-2-YL)-1H-indazoles and therapeutic uses thereof” (Samumed, LLC, priority 2015, dated 2019).

Legend:
Assay type in all cases: cell-based
[1] = system: primary human fibroblasts derived from IPF patients (LL29 cells) treated with TGF-β1; experiment: Inhibition of the fibrotic process (αSMA staining) in TGF-β1-treated fibroblasts; conditions: Fibroblast, 96 h, % αSMA-positive LL29 cells, TGF-β1 20 ng/mL, 4 days
Method in brief: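 LL29 fibroblasts from IPF patients, 1,500 cells/well in F12 with 1% FBS, stimulated with TGF-β1; TGF-β1 plus DMSO wells as controls. Incubation 4 days, then SYTOX green 1 μM final for 30 min at room temperature. Fibrotic response read as αSMA staining.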

[2] = system: primary human mesenchymal stem cells (hMSCs); experiment: Induction of chondrogenesis in hMSCs (Rhodamine B / Nile Red nodule imaging); conditions: for EC50: concentration required to induce 50% levels of chondrogenesis vs TGF-β3 positive control, read-out: Conc (nM) of 50% TGF-β3 activity; for Emax: maximum activity relative to TGF-β3 (10 ng/mL) positive control, read-out: Max. Activity as % TGF-β3 activity
Method in brief: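 Primary hMSCs at passage 3-6 were treated with compound; nodule area per well was normalized to the mean of 3 DMSO wells, averaged over 2-3 replicates, and the concentration giving 50% chondrogenesis relative to TGF-β3 control, plus maximum activity and its dose, was derived.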

IL-6 (THP-1 cells) = experiment: IL-6 inhibition in LPS-stimulated THP-1 cells (HTRF); conditions: Homo sapiens; for EC50: IL6 by HTRF, THP-1 cells, 500 ng/mL LPS, 22 hours
Method in brief: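 THP-1 cells, pre-cultured 24 h in 1% FBS medium, treated with compound 2 h at 37 °C, then stimulated with 500 ng/mL LPS for 22 h. Secreted IL-6 measured by HTRF as the 665/620 nm ratio. Values normalized to DMSO; EC50 from four-parameter fit, duplicates.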

[3] = system: Wnt activity (Sp5-Luc reporter, SW480 colon carcinoma cells); experiment: Screening assay for Wnt activity (Sp5-Luc reporter gene assay in SW480 cells); conditions: Homo sapiens; for EC50: Sp5-Luc reporter, SW480 cells, incubated overnight; for inhibition at 10 µM: SW480, read-out: percent inhibition at 10 μM
Method in brief: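 SW480 colon carcinoma cells stably carrying Sp5 promoter (eight TCF/LEF sites)-driven firefly luciferase, plated at 4,000 cells/well in 1% FBS medium and incubated overnight at 37° C. Luminescence normalised to DMSO-only cells; EC50 from four-parameter variable-slope nonlinear regression.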

SW480 colon cancer cells = experiment: Cell viability assay (CellTiter-Blue); conditions: Homo sapiens; for EC50: 96 h, SW480 cell viability, four days, CellTiter-Blue; for inhibition at 10 µM: SW480, 96 h, read-out: percent inhibition at 10 μM
Method in brief: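 Fluorescence from resazurin reduced to resorufin by metabolically active cells was the read-out, taken after ~3 h with CellTiter-Blue.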

EC50 [2]	EC50 (IL-6 (THP-1 cells))	EC50 [3]	EC50 (SW480 colon cancer cells)	SMILES	EC50 [1]	Emax [2]	inhibition at 10 µM [3]	inhibition at 10 µM (SW480 colon cancer cells)	inhibition at 10 µM (IL-6 (THP-1 cells); THP-1, read-out: percent inhibition at 10 M)
900 nM	149 nM	275 nM	491 nM	CCCCC(=O)Nc1cncc(-c2ccc3[nH]nc(-c4cc5cnccc5[nH]4)c3c2)c1 [Compound 271, N-(5-(3-(1H-Pyrrolo[3,2-c]pyridin-2-yl)-1H-indazol-5-yl)pyridin-3-yl)pentanamide]	192 nM	67%	–	–	–
10 nM	94 nM	120 nM	236 nM	CC(C)(C)CC(=O)Nc1cncc(-c2ccc3[nH]nc(-c4cc5cnccc5[nH]4)c3c2)c1 [Compound 268, N-(5-(3-(1H-Pyrrolo[3,2-c]pyridin-2-yl)-1H-indazol-5-yl)pyridin-3-yl)-3,3-dimethylbutanamide]	199 nM	208%	–	–	–
30 nM	1160 nM	1860 nM	552 nM	c1cc2[nH]c(-c3n[nH]c4ccc(-c5cncc(OCCN6CCCC6)c5)cc34)cc2cn1 [Compound 658, 5-(5-(2-(Pyrrolidin-1-yl)ethoxy)pyridin-3-yl)-3-(1H-pyrrolo[3,2-c]pyridin-2-yl)-1H-indazole]	338 nM	198%	–	–	–
–	6110 nM	7690 nM	> 10000 nM	CC(C)C(=O)Nc1cncc(-c2ccc3[nH]nc(-c4cc5c(N6CCN(C)CC6)nccc5[nH]4)c3c2)c1 [Compound 233, N-(5-(3-(4-(4-Methylpiperazin-1-yl)-1H-pyrrolo[3,2-c]pyridin-2-yl)-1H-indazol-5-yl)pyridin-3-yl)isobutyramide]	4720 nM	21%	–	38.5%	–
10 nM	451 nM	1040 nM	844 nM	CCNCc1cncc(-c2ccc3[nH]nc(-c4cc5cnccc5[nH]4)c3c2)c1 [Compound 258, N-((5-(3-(1H-Pyrrolo[3,2-c]pyridin-2-yl)-1H-indazol-5-yl)pyridin-3-yl)methyl)ethanamine]	1260 nM	317%	–	–	–
–	9120 nM	808 nM	500 nM	COc1cncc(-c2ccc3[nH]nc(-c4cc5c(-c6ccsc6)nccc5[nH]4)c3c2)c1 [Compound 676, 5-(5-Methoxypyridin-3-yl)-3-(4-(thiophen-3-yl)-1H-pyrrolo[3,2-c]pyridin-2-yl)-1H-indazole]	2100 nM	39%	–	–	–
2700 nM	649 nM	614 nM	1580 nM	Cc1ccncc1-c1ccc2[nH]nc(-c3cc4c(-c5ccoc5)nccc4[nH]3)c2c1 [Compound 313, 3-(4-(Furan-3-yl)-1H-pyrrolo[3,2-c]pyridin-2-yl)-5-(4-methylpyridin-3-yl)-1H-indazole]	286 nM	153%	–	–	–
–	754 nM	2140 nM	3620 nM	CN1CCN(c2nccc3[nH]c(-c4n[nH]c5ccc(-c6cncc(NC(=O)c7ccccc7)c6)cc45)cc23)CC1 [Compound 235, N-(5-(3-(4-(4-Methylpiperazin-1-yl)-1H-pyrrolo[3,2-c]pyridin-2-yl)-1H-indazol-5-yl)pyridin-3-yl)benzamide]	1610 nM	35%	–	–	–

More lines, now with the values behind:

SMILES	EC50 [2]	EC50 (IL-6 (THP-1 cells))	EC50 [3]	EC50 (SW480 colon cancer cells)	EC50 [1]	Emax [2]	inhibition at 10 µM [3]	inhibition at 10 µM (SW480 colon cancer cells)	inhibition at 10 µM (IL-6 (THP-1 cells); THP-1, read-out: percent inhibition at 10 M)
FC1(F)CCN(Cc2cncc(-c3ccc4[nH]nc(-c5cc6c(N7CCCCC7)nccc6[nH]5)c4c3)c2)C1 [Compound 194, 5-(5-((3,3-difluoropyrrolidin-1-yl)methyl)pyridin-3-yl)-3-(4-(piperidin-1-yl)-1H-pyrrolo[3,2-c]pyridin-2-yl)-1H-indazole]	–	257 nM	2000 nM	1420 nM	1000 nM	40%	–	–	–
O=C(Nc1cncc(-c2ccc3[nH]nc(-c4cc5c(-c6ccncc6)nccc5[nH]4)c3c2)c1)C1CCCC1 [Compound 134, N-(5-(3-(4-(Pyridin-4-yl)-1H-pyrrolo[3,2-c]pyridin-2-yl)-1H-indazol-5-yl)pyridin-3-yl)cyclopentanecarboxamide]	30 nM	9740 nM	> 10000 nM	> 10000 nM	2440 nM	114%	20.6%	4.2%	–
Fc1cccc(-c2nccc3[nH]c(-c4n[nH]c5ccc(-c6cncc(CN7CCC(F)(F)C7)c6)cc45)cc23)c1 [Compound 26, 5-(5-((3,3-Difluoropyrrolidin-1-yl)methyl)pyridin-3-yl)-3-(4-(3-fluorophenyl)-1H-pyrrolo[3,2-c]pyridin-2-yl)-1H-indazole]	10 nM	142 nM	125 nM	293 nM	169 nM	228%	–	–	–
c1cncc(-c2ccc3[nH]nc(-c4cc5c(N6CCCCC6)nccc5[nH]4)c3c2)c1 [Compound 172, 3-(4-(Piperidin-1-yl)-1H-pyrrolo[3,2-c]pyridin-2-yl)-5-(pyridin-3-yl)-1H-indazole]	10 nM	189 nM	480 nM	844 nM	1050 nM	172%	–	–	–
Nc1cncc(-c2ccc3[nH]nc(-c4cc5c(-c6ccncc6)nccc5[nH]4)c3c2)c1 [Compound 115, 5-(3-(4-(Pyridin-4-yl)-1H-pyrrolo[3,2-c]pyridin-2-yl)-1H-indazol-5-yl)pyridin-3-amine]	100 nM	> 10000 nM	658 nM	3790 nM	1390 nM	77%	–	–	29%
CCC(=O)Nc1cncc(-c2ccc3[nH]nc(-c4cc5c(-c6cccc(F)c6)nccc5[nH]4)c3c2)c1 [Compound 1, N-(5-(3-(4-(3-Fluorophenyl)-1H-pyrrolo[3,2-c]pyridin-2-yl)-1H-indazol-5-yl)pyridin-3-yl)propionamide]	–	35 nM	45 nM	102 nM	41 nM	16%	–	–	–
O=C(Cc1ccccc1)Nc1cncc(-c2ccc3[nH]nc(-c4cc5c(N6CCCCC6)nccc5[nH]4)c3c2)c1 [Compound 178, 2-Phenyl-N-(5-(3-(4-(piperidin-1-yl)-1H-pyrrolo[3,2-c]pyridin-2-yl)-1H-indazol-5-yl)pyridin-3-yl)acetamide]	900 nM	1520 nM	2350 nM	2870 nM	505 nM	73%	–	–	–
CC(C)CC(=O)Nc1cncc(-c2ccc3[nH]nc(-c4cc5c(-c6ccncc6)nccc5[nH]4)c3c2)c1 [Compound 114, 3-Methyl-N-(5-(3-(4-(pyridin-4-yl)-1H-pyrrolo[3,2-c]pyridin-2-yl)-1H-indazol-5-yl)pyridin-3-yl)butanamide]	30 nM	1020 nM	> 10000 nM	> 10000 nM	2220 nM	95%	39.7%	4.1%	–
c1cc2[nH]c(-c3n[nH]c4ccc(-c5cncc(CN6CCCCC6)c5)cc34)cc2c(N2CCCCC2)n1 [Compound 183, 3-(4-(Piperidin-1-yl)-1H-pyrrolo[3,2-c]pyridin-2-yl)-5-(5-(piperidin-1-ylmethyl)pyridin-3-yl)-1H-indazole]	–	9310 nM	4210 nM	3810 nM	3280 nM	48%	–	–	–
Fc1cccc(-c2nccc3[nH]c(-c4n[nH]c5ccc(-c6cccnc6)cc45)cc23)c1 [Compound 4, 3-(4-(3-Fluorophenyl)-1H-pyrrolo[3,2-c]pyridin-2-yl)-5-(pyridin-3-yl)-1H-indazole]	–	164 nM	140 nM	453 nM	44 nM	32%	–	–	–
